Patent US20100166726A1, “COMPOSITIONS FOR IMPROVING CELLULAR UPTAKE OF A CHEMOTHERAPEUTIC AGENT IN A CELL EXHIBITING MUCIN DEREGULATION” (NORTHEASTERN UNIVERSITY, priority 2007, published 2010)

Legend:
Capan-1 cells [1] = assay: Cytotoxic activity of chemotherapeutic agents with or without benzyl-α-GalNAc pretreatment, sulforhodamine B assay; format: cell-based, human; details: benzyl-α-GalNAc 48 hr, then drug 24 hr
Method: Human pancreatic cancer cell morphology was visualized using light microscopy. Six hydrophilic chemotherapeutic agents namely cisplatin, gemcitabine, carboplatin, methotrexate, doxorubicin, vinblastine and six lipophilic agents namely lomustine, busulfan, camptothecin, etoposide, teniposide and paclitaxel with molecular weights ranging from approximately 200 to 900 were used. Two different concentrations of each drug type were evaluated in the presence and absence of heavily O-glycosylated chains with Benzyl-α-GalNAc as O-glycosylation inhibitor. Cell viability was determined using Sulforhodamine B assay. The percent change in cell viability was used to assess the overall benefit of reducing mucin in Capan-1 cells when different cytotoxic drugs are employed.
The growth inhibitory effect of the chemotherapeutic agent after 24 hr of exposure was determined by sulforhodamine B assay and percent of viable cells was calculated as follows: […]

HPAF-II cells [2] = assay: 5-FU cytotoxicity with or without benzyl-α-GalNAc pre-exposure, sulforhodamine B assay; format: cell-based, human; details: 48 hr exposure followed by 5-FU (108 μmol/ml) 24 hr
Method: The effects of increasing benzyl-α-GalNAc concentrations on cytotoxicity of 5-FU (108 μmol/ml) against HPAF-II cells was first tested. […] The growth inhibitory effect of 5-FU after 24 hr of exposure was determined using sulforhodamine B (Sigma-Aldrich, St. Louis, Mo.) assay the percent of viable cells was calculated as follows: […]

[3] = system: Capan-1, HPAF-II, and U-87 MG cells; assay: Cell morphology by DIC microscopy after benzyl-α-GalNAc exposure; format: cell-based, human; details: 72 hr exposure at maximum non-toxic concentration
Method: To observe the effects of benzyl-α-GalNAc exposure on cell morphology, differential interference contract (DIC) microscopy was employed. Sterile cover slips were placed in six-well plates (Corning, N.Y.). Capan-1, HPAF-II, and U-87 MG cells were next seeded at 1×10^4 per ml in the same 6-well plates.

Capan-1 tumors [4] = assay: Anti-tumoral activity in Capan-1 pancreatic tumor model (tumor volume, histochemical staining, neoplastic cell density); format: in vivo, SCID mice
Method: All animal work was performed in the animal facility at Northeastern University, Boston, Mass. in accordance with the institutional guidelines. Female SCID (severe combined immunodeficient mice), 6 to 8 weeks old purchased from Massachusetts General Hospital, Boston, Mass. were used for our study since they have been used successfully for developing human xenografts of pancreatic tumors. To establish the tumors, 2.5×10^6 Capan-I cells in 0.1 ml of cell culture medium were injected into the subcutaneous dorsa of all mice. Mice were weighed daily using a digital weighing balance (AccuSeries®, Fisher Scientific, Arvada, Colo.) and tumor volumes were also measured every day using an electronic digital caliper (Control Company, Friendswood, Tex.). Tumor volumes were calculated using the formula a^2×b×0.52, where “a” is the longer diameter and “b” is the shorter diameter. Once the tumor volumes were approximately 50 mm^3-70 mm^3 the experimental groups received intratumoral injections of benzyl-α-GalNAc (0.1 ml injection; 10 mg/ml) whereas […] at intervals of 48 hr. When the tumor volumes were approximately 100 mm^3 5-FU was administered via the intravenous route. Animals in treatment groups received two injections (0.1 ml) of 5-FU at interval of 4 days whereas control mice received saline (0.1 ml). The total dose of 5-FU administered was 125 mg/kg. At the end of the experiment animals were sacrificed, tumor tissue was surgically removed and fixed in 10% formalin at 4° C. for histochemical staining.
For histochemical staining, paraffin-embedded tissue sections (5 μm) were stained with hematoxylin and eosin (H&E) to evaluate and compare the extent of tissue viability. The tumor sections were scanned and qualitative images captured using brightfield microscopy (Olympus BX61WI, NY). The number of tumor cells in each section was quantified using bioquant imaging software and expressed as percent of total tumor area. To quantify the total tumor area we first traced the outline of the entire tumor section in each field of view (FOV). The pixels within the traced area were then selected and the pixel count was determined by the software. A total of five FOV were analyzed to determine the total pixel count of the tumor area. Microscope stage encoders were used to ensure that no tumor area was counted more than once. Similarly the total pixel count of the neoplastic cells featured in blue in each FOV was determined. The total percent of neoplastic cell density was calculated as follows: […]
For these studies the pancreatic cell line, Capan-1 was used to used to establish a pancreatic tumor model. Capan-1 tumors were established in subcutaneous dorsa of female SCID mice (see, Example 7). […] 5-FU therapy began when the tumor size was approximately 100 mm^3.

HPAF-II cells [5] = assay: Anti-MUC1 (CD227) antibody association after benzyl-α-GalNAc exposure (microplate fluorescence, FACS); format: cell-based, human
Method: (§1) In order to determine whether the concentrations of benzyl-α-GalNAc employed are sufficient to inhibit MUC1 O-glycosylation, we observed the alterations in anti-MUC1 (CD227) association after exposure to the inhibitor. The antibody association studies were performed as follows. […] After each exposure time point the cells were washed with 1×PBS and 1 ml of fresh media was added to each well. The cells were then exposed to 4 μl/well of anti-MUC1 antibody.
(§2) Fluorescence-activated cell-sorting (FACS) analysis was then performed as follows. […] After 48 hr exposure to benzyl-α-GalNAc cells were washed with 1×PBS and 1 ml of fresh media was added to each well. The cells were then exposed to 4 μl/well of CD227 antibody. Following 24 hr incubation with the antibody, cells were washed with 1×PBS to remove any unassociated antibody and cells were detached using 0.5 ml/well trypsin. Cells were then washed with 1×PBS and antibody association was determined using FACS analysis.

Capan-1 cells [6] = assay: as above; format: cell-based, human
Method: as §1, §2

U-87 MG cells [7] = details: 72 hr exposure
Method: In order to determine the contribution of MUC1 expression in the delivery of drugs such as 5-FU to pancreatic tumors, the maximum non-toxic concentration of benzyl-α-GalNAc that could be used to inhibit O-glycosylation of MUC1 was determined from cellular toxicity studies. These cellular toxicity studies were performed as follows. Cells were seeded at 1×10^4 per ml in 48-well plates. Following a 24 hr incubation period at 37° C., cells were exposed to various concentrations of benzyl-α-GalNAc solution (Sigma-Aldrich, St. Louis, Mo.) prepared in media. After 72 hr of cell exposure to benzyl-α-GalNAc, the percent of cell viability was determined using sulforhodamine B assay (Kalra et al., Pharm. Res., 23(12):2809-2817 (2006); Skehan et al., J. Natl. Cancer Inst,. 82:1107-1112 (1990)) and calculated as follows:

HPAF-II tumors = assay: MUC1 carbohydrate staining of tumors after intratumoral benzyl-α-GalNAc; format: in vivo, SCID mice; details: four intratumoral injections (10 mg/ml, 0.1 cc) at intervals of 48 hr
Method: (§3) All animal work was performed in the animal facility at Northeastern University, Boston, Mass. in accordance with the institutional guidelines. Female SCID (severe combined immunodeficient mice), 6 to 8 weeks old purchased from Massachusetts General Hospital, Boston, Mass. were used for our study since they have been used successfully for developing human xenografts of pancreatic tumors. To establish the tumors, 2.5×10^6 Capan-I cells in 0.1 ml of cell culture medium were injected into the subcutaneous dorsa of all mice. Mice were weighed daily using a digital weighing balance (AccuSeries®, Fisher Scientific, Arvada, Colo.) and tumor volumes were also measured every day using an electronic digital caliper (Control Company, Friendswood, Tex.). Tumor volumes were calculated using the formula a^2×b×0.52, where “a” is the longer diameter and “b” is the shorter diameter. […]
(§4) In order to test the in vivo effect of Benzyl-α-GalNAc in a pancreatic tumor model, Benzyl-α-GalNAc was administered locally into the tumor mass of mice via intratumoral injections (10 mg/ml, 0.1 cc). […] Following intratumoral injections, the sections of subcutaneous Capan-1 and HPAF-II tumors were analyzed for MUC1 carbohydrate staining (FIG. 7B).

Capan-1 tumors [8] = assay: as above; format: in vivo, SCID mice; details: four intratumoral injections (10 mg/ml, 0.1 cc) at intervals of 48 hr
Method: as §3, §4

HPAF-II cells [9] = assay: Cell viability and morphology after removal of benzyl-α-GalNAc; format: cell-based, human
Method: (§5) These experiments were conducted to determine whether the successful elimination of the glycosylated functional groups surrounding the MUC1 peptide core limit the capacity of cells to proliferate once benzyl-α-GalNAc has been removed. A significant change in cells' ability to multiply and divide due to exposure to benzyl-α-GalNAc would affect the measure of MUC1's role in our experiment. Capan-1 and HPAF-II cells were exposed to benzyl-α-GalNAc for 48 hr. Percent of cell viability was determined 24 hr, 48 hr, and 72 hr after removal of benzyl-α-GalNAc. […] Following 48 hr exposure to benzyl-α-GalNAc cells were washed with 1×PBS and then allowed to grow for an additional 24 hr, 48 hr, and 72 hr in fresh media.

Capan-1 cells [10] = assay: as above; format: cell-based, human
Method: as §5

U-87 MG cells [11] = assay: Anti-MUC1 (CD227) antibody association after benzyl-α-GalNAc exposure (FACS); format: cell-based, human; details: 48 hr exposure
Method: as §2

HPAF-II cells [12] = assay: Cellular toxicity of benzyl-α-GalNAc, sulforhodamine B assay; format: cell-based, human; details: 72 hr exposure
Method: (§6) O-glycosylation is critical for mucin formation. […] These cellular toxicity studies were performed as follows.

Capan-1 cells [13] = assay: as above; format: cell-based, human; details: 72 hr exposure
Method: as §6

[14] = 24 hr, 48 hr, or 72 hr exposure at maximum non-toxic concentration
[15] = 48 hr exposure then fresh media

Row | Compound | Percent increase in chemotherapeutic activity (chemotherapeutic benefit) when pretreated with benzyl-α-GalNAc (Capan-1 cells [1]) | benzyl-α-GalNAc concentration at which decrease of percent cell viability vs 5-FU alone was significant (HPAF-II cells [2]) | morphological structures of cells compared to cells not exposed [3] | histochemical staining of tumor sections, neoplastic cells (Capan-1 tumors [4]; H&E stained sections) | tumor volume compared to control tumors (saline group) (Capan-1 tumors [4]; benzyl-α-GalNAc intratumoral days 4, 6, 8, 10, 5-FU intravenous, total 125 mg/kg) | Percent Tumor Area (neoplastic cell density as percent of total tumor area) (Capan-1 tumors [4]; bioquant imaging software, tumor sections at end of experiment) | anti-MUC1 (CD227) antibody association, fluorescence intensity vs cells not exposed (HPAF-II cells [5]; [14]) | FACS analysis of CD227 association vs cells not exposed (HPAF-II cells [5]; 48 hr exposure) | anti-MUC1 (CD227) antibody association, fluorescence intensity vs cells not exposed (Capan-1 cells [6]; [14]) | FACS analysis of CD227 association vs cells not exposed (Capan-1 cells [6]; 48 hr exposure) | tolerated concentration (U-87 MG cells [7]) | staining for MUC1 O-glycosylation vs tumors not exposed (HPAF-II tumors) | staining for MUC1 O-glycosylation vs tumors not exposed (Capan-1 tumors [8]) | effect on growth post-removal of inhibitor vs untreated controls (HPAF-II cells [9]; 0.8 mg/ml for 48 hr, then 24 hr, 48 hr, 72 hr in fresh media) | morphology (DIC images) post-removal of inhibitor (HPAF-II cells [9]; [15]) | effect on growth post-removal of inhibitor vs untreated controls (Capan-1 cells [10]; 0.4 mg/ml for 48 hr, then 24 hr, 48 hr, 72 hr in fresh media) | morphology (DIC images) post-removal of inhibitor (Capan-1 cells [10]; [15]) | FACS analysis of CD227 association vs cells not exposed (U-87 MG cells [11]) | maximum non-toxic concentration (HPAF-II cells [12]) | maximum non-toxic concentration (Capan-1 cells [13])
1 | N.N.O=C([O-])C1(C(=O)[O-])CCC1.[Pt+2] [Carboplatin] | 33% | – | – | – | – | – | – | – | – | – | – | – | – | – | – | – | – | – | – | –
2 | CC(=O)N[C@H]1[C@@H](OCc2ccccc2)O[C@H](CO)[C@H](O)[C@@H]1O [benzyl-α-GalNAc, benzyl-2-acetamido-2-deoxy-α-D-galactopyranoside] | – | ≥ 0.4 mg/mL | no visible difference | dense packing of neoplastic cells | No difference | 28.3 ± 1.8% | significantly enhanced | shift in fluorescence peaks | significantly enhanced | shift in fluorescence peaks | > 0.8 mg/mL | Lower staining | Lower staining | No significant effect | no visible morphological changes | No significant effect | no visible morphological changes | no shift in peak | 0.8 mg/mL | 0.4 mg/mL
